Reference: US20090286831A1, “VR1 Receptor Ligands and u-Opioid Receptor Ligands for the Treatment of Pain” (priority 2006, published 2009)
Marks after values point to notes of the source that are not given here.

How the values were obtained:
[1] = target: T1, vanilloid receptor 1 (VR1/TRPV1) (Homo sapiens, UniProt Q8NER1); test: FLIPR capsaicin assay; assay type: cell-based, human or rat; settings: functional Ki, capsaicin 100 nM, VR1-transfected CHO K1 cells, modified Cheng-Prusoff; read-out: f(Ki) (VR1)
T1 construct: expressed in transfected cells; host or cells: CHO K1 cells (ECACC), stably transfected
Excerpt: (§1) The agonist or antagonist effect of substances can be determined at the vanilloid receptor 1 (VR1/TRPV1) of the human and rat species with the assay described below. Accordingly, the Ca^2+ influx through the channel is quantified by means of a Ca^2+-sensitive dye (Fluo-4, Molecular Probes Europe BV, Leiden, The Netherlands) in the fluorescent imaging plate reader (FLIPR, Molecular Devices, Sunnyvale, USA).
(§2) Chinese hamster ovary cells (CHO K1 cells, ECACC, England) are stably transfected with human or rat VR1 cDNA. For functional studies these cells are plated onto poly-D-lysine-coated black 96-hole plates with a clear base (BD Biosciences, Heidelberg, Germany) in a density of 25 000 cells/cavity. The cells are incubated overnight at 37° C. with 5% CO2 in culture medium (nutrient mixture Ham's F12, Gibco Invitrogen GmbH, Karlsruhe, Germany) with 10% vol. FBS (foetal bovine serum, Gibco Invitrogen GmbH, Karlsruhe, Germany) and 18 μg/ml of L-proline (Gibco Invitrogen GmbH, Karlsruhe, Germany). On the following day, the cells are laden with 2 μM Fluo-4 and 0.01% vol. Pluronic F127 (Molecular Probes Europe BV, Leiden, The Netherlands) in HBSS buffer (Hank's buffered saline solution, Gibco Invitrogen GmbH, Karlsruhe, Germany) for 30 min at 37° C. The plates are then washed 3 times in HBSS buffer and after further incubation for 15 minutes at room temperature are placed in the FLIPR for the Ca^2+ measurement. In this case, the Ca^2+-dependent fluorescence is measured before and after the addition of substances (λex=488 nm, λem=540 nm). Quantification occurs as a result of the measurement of the highest fluorescence intensity (FC, fluorescence counts) over time.
The FLIPR protocol consists of 2 substance additions. Test substances (10 μM) are firstly pipetted onto the cells and the Ca^2+ influx is compared to the control (capsaicin 10 μM). This gives the specification in % activation in relation to the Ca^2+ signal after adding 10 μM of capsaicin. After 5 minutes incubation 100 nM of capsaicin are applied and the influx of Ca^2+ likewise determined. Desensitising agonists and antagonists lead to a suppression of the Ca^2+ influx. Inhibition values [%] are calculated in comparison to the maximum achievable inhibition with a saturating concentration of […] or another reference antagonist. The test substance is added in different concentrations to determine the IC50 and functional Ki value ((f)Ki). Triple determinations (n=3) are conducted and these are repeated in at least one further independent experiment (N>=2). A capsaicin dose action curve is generated to incorporate the thus determined EC50 values into the associated (f)Ki determination. EC50/IC50 values are calculated using ‘Prism4’ software from GraphPad Software™ or with XLfit4™ (ID Business Solutions Ltd.). (f)Ki values are calculated in accordance with the modified Cheng-Prusoff equation (Cheng, Prusoff; Biochem. Pharmacol. 22, 3099-3108, 1973). Testing for non-specific inhibition of the fluorescence as a result of the substances is conducted by activating wild type CHO K1 cells incubated with the same test substances with ATP (10 μM final concentration).

rats = test: Tail-flick (hot beam) test in rats; assay type: in vivo, rat; settings: dosage 30 mg/kg i.v.
Description: Sprague Dawley rats (140-160 g body weight) were used for the following animal models. Sprague Dawley rats (140-160 g body weight) from a commercial breeder (Janvier, Genest St. Isle, France) were used. The animals were kept under standard conditions: light-dark rhythm (06:00 to 18:00 h light, 18:00 to 06:00 h dark), room temperature 19-23° C., relative air humidity 45-65%, air exchange 19 times per hour, air movement <0.2 m/s, free choice of tap water and standard feed, Macrolon Type 4 cages with 5 animals per cage. The solutions of the test substances and/or vehicles (10% […], 5% Cremophor EL, 5% glucose) were administered intravenously.
The analgesic efficacy of the test compounds was examined in the hot beam (tail flick) test in rats using the method of D'Amour and Smith (J. Pharm. Exp. Ther. 1941, 72, 74-79). The time from switching on the lamp (8V/50 W) to the sudden flicking away of the tail from the hot beam (pain latency) was measured by means of a semiautomatic apparatus (tail-flick Analgesiemeter Type 50/08/1.bc, Labtec, Dr. Hess, Germany). The lamp intensity was adjusted before conducting the experiments so that the time from switching on the lamp to the sudden flicking away of the tail (pain latency) amounted to 3-5 seconds in untreated animals. The lamp was automatically switched off after 12 seconds to avoid tissue damage to the rat's tail. The pain latency was measured 10, 20, 40 and 60 min after intravenous administration. The analgesic effect was determined as increase in pain latency (% MPE) according to the following formula: […]
In this case, T0 is the latency time before and T1 the latency time after substance application, T2 is the maximum exposure time (12 sec). Results of the analgesia study in the tail-flick test in rats:
The following experiments of Example 2 relate to binding studies and the analgesic efficacy of the compounds with dual mode of action according to the invention. The experiments comprise the determination of the (f)Ki value at the TPRV1 receptor, the Ki value at the μ-opioid receptor and the hypothermia assay in mice. The tail-flick test for the compounds [1], [4], [7] and [10] according to the invention was conducted in a similar manner to the above-described method (cf. Example 1, experiment 1).

human VR1 = target: T2, human VR1 (Homo sapiens, UniProt Q8NER1); test: FLIPR pH assay; assay type: cell-based
T2 construct: expressed in transfected cells; host or cells: CHO K1 cells (ECACC), stably transfected
Excerpt: as §1, §2
In the pH assay, HBSS that now contains 60 mM MES instead of capsaicin is applied to human VR1-transfected CHO K1 cells (adjusted pH value of the addition solution is 4.95). Percentage inhibition and IC50 values are raised and evaluated as already described for the capsaicin test.

[2] = target: T3, human recombinant μ-opioid receptor (Homo sapiens, UniProt P35372); test: Ki value at the μ-opioid receptor (Experiment 4); assay type: binding
T3 construct: expressed in transfected cells; host or cells: CHO-K1 cells (membrane preparation)

male NMRI mice = test: Hypothermia assay in mice (capsaicin-induced hypothermia); assay type: in vivo, mouse; settings: dosage 3 mg/kg p.o., capsaicin 3 mg/kg i.p.
Description: The hypothermia assay was conducted on male NMRI mice (weight 25-35 gram). The animals were kept in standardised conditions: light/dark rhythm (6:00 to 18:00 h light phase, 18:00 to 6:00 h dark phase), room temperature 19-22° C., relative air humidity 35-70%, air exchange 15 times per hour, air movement <0.2 m/sec. The animals received standard feed (ssniff R/M-Haltung, ssniff Spezialdiäten GmbH, Soest, Germany) and tap water. Water and feed were withdrawn during the test. All the animals were used only once in the test. […] The acute application of capsaicin (VR-1 agonist) causes a drop in core body temperature in rats and mice via a stimulation of heat sensors. Only specific active VR-1 receptor antagonists can antagonise capsaicin-induced hypothermia. In contrast, hypothermia induced by morphine is not antagonised by VR-1 antagonists. This model is therefore suitable for identifying substances with VR-1 antagonist properties via the effect on the body temperature.
A digital thermometer (Thermalert TH-5, physitemp, Clifton N.J., USA) is used for measuring the core body temperature. The measurement sensor is inserted into the rectum of the animals in this case. As an individual base value the body temperature is measured twice in each animal at an interval of approximately half an hour. A group of animals (n=6 to 10) then received an intraperitoneal (i.p.) application of capsaicin of 3 mg/kg and vehicle (control group). Another group of animals received the substance to be tested (i.v. or p.o.) and additionally capsaicin (3 mg/kg) i.p. The test substance was applied i.v. 10 min or p.o. 15 minutes before the application of capsaicin. Then, the body temperature was measured 7.5, 15 and 30 min after capsaicin application (i.v.+i.p.) or 15, 30, 60, 90 and 120 min after capsaicin application (p.o.+i.p.). In addition, one animal group was treated only with test substance and one group was treated only with vehicle. The antagonist effect is calculated as a percentage reduction in the capsaicin-induced hypothermia.

T1 sequence (Q8NER1 whole entry): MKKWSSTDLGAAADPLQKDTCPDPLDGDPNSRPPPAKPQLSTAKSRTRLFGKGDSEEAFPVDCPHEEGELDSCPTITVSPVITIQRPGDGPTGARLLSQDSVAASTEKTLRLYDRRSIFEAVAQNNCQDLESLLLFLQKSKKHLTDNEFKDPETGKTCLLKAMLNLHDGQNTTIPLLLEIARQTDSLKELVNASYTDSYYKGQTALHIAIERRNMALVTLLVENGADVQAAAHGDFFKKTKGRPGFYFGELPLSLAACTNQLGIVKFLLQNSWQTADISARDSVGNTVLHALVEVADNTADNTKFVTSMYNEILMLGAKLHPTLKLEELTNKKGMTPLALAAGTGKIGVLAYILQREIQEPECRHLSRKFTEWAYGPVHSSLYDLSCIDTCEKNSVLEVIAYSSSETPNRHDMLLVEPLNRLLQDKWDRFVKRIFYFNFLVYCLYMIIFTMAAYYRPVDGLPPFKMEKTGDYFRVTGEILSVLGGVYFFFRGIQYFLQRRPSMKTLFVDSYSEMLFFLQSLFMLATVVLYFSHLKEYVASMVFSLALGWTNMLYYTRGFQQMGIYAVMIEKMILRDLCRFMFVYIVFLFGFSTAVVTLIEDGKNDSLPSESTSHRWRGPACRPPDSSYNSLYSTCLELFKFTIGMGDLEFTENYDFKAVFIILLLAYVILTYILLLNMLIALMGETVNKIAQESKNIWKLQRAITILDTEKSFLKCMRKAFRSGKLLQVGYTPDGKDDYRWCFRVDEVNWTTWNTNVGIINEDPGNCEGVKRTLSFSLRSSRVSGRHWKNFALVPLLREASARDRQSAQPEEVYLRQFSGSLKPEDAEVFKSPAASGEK
T2 sequence (Q8NER1 whole entry): as above
T3 sequence (P35372 whole entry): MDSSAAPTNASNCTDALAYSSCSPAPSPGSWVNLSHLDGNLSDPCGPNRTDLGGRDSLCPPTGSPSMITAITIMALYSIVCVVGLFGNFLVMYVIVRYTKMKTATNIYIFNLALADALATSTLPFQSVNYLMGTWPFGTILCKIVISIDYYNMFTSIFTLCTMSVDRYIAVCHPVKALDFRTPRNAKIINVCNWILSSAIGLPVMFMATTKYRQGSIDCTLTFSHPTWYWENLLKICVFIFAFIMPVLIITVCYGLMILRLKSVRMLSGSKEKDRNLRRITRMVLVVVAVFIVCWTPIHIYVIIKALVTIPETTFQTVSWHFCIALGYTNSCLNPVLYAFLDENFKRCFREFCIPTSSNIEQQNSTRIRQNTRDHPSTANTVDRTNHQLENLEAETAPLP

Compound | Ki [1] [nM] | Tail-Flick [% MPE] (rats) | IC50 (human VR1) [nM] | Ki [2] [nM] | Hypothermia Assay [% Inhibition] (male NMRI mice) [%^1)]
CC(C(=O)NCc1ccc(C(F)(F)F)cc1N1CCC(c2cccs2)(N(C)C)CC1)c1ccc(NS(C)(=O)=O)c(F)c1 (centres unmarked) [[4], N-(2-(4-(dimethylamino)-4-(thiophen-2-yl)piperidin-1-yl)-4-(trifluoromethyl)benzyl)-2-(3-fluoro-4-(methylsulfonamido)phenyl)propanamide] | 5 | n.e.^3), 37%^4) % MPE | 776 | 61 | 4
CC(C(=O)NCc1ccc(C(F)(F)F)cc1N1CCC(Cc2ccccc2)(N(C)C)CC1)c1ccc(NS(C)(=O)=O)c(F)c1 (centres unmarked) [[7], N-(2-(4-benzyl-4-(dimethylamino)piperidin-1-yl)-4-(trifluoromethyl)benzyl)-2-(3-fluoro-4-(methylsulfonamido)phenyl)propanamide] | 2.8 | n.e.^3), 100%^4) % MPE | 434 | 24 | 59
CC(C(=O)NCc1ccc(C(F)(F)F)cc1N1CCC(Cc2cccc(F)c2)(N(C)C)CC1)c1ccc(NS(C)(=O)=O)c(F)c1 (centres unmarked) [[10], N-(2-(4-(dimethylamino)-4-(3-fluorobenzyl)piperidin-1-yl)-4-(trifluoromethyl)benzyl)-2-(3-fluoro-4-(methylsulfonamido)phenyl)propanamide] | 1.4 |  | 137 | 79 | 29
